Source: PubChem BioAssay AID2060904 (Molecular Pharmacology Branch, DTP, NCI, 2025)

Tested on: 349418-098-R-PDC complex spheroid viability
Test: Anticancer human tumor 349418-098-R-PDC patient-derived lung adenocarcinoma cell line growth inhibition [RAS]
Details: for IC50: curve of first compound; for viability, T/C: stronger effect = lower value; active = viability on the fitted dose curve at most 10% of control; inactive = the rest
Outline: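 Multi-cell-type spheroids: tumor cells plus HUVEC endothelial cells and mesenchymal stem cells. RAS-pathway inhibitors were combined with targeted agents, each dosed in half-log steps down from clinical Cmax, or from 10 microM when Cmax was unknown.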

[1] = second compound 0.000949 µM, first compound 0.0316 µM
[2] = second compound 0.000949 µM, first compound 0.1 µM
[3] = second compound 0.000949 µM, first compound 0.316 µM
[4] = second compound 0.000949 µM, first compound 1 µM
[5] = second compound 0.000949 µM, first compound 3.16 µM
[6] = second compound 0.000949 µM, first compound 10 µM
[7] = second compound 0.003 µM, first compound 0.0316 µM
[8] = second compound 0.003 µM, first compound 0.1 µM
[9] = second compound 0.003 µM, first compound 0.316 µM
[10] = second compound 0.003 µM, first compound 1 µM
[11] = second compound 0.003 µM, first compound 3.16 µM
[12] = second compound 0.003 µM, first compound 10 µM
[13] = second compound 0.00949 µM, first compound 0.0316 µM
[14] = second compound 0.00949 µM, first compound 0.1 µM
[15] = second compound 0.00949 µM, first compound 0.316 µM
[16] = second compound 0.00949 µM, first compound 1 µM
[17] = second compound 0.00949 µM, first compound 3.16 µM
[18] = second compound 0.00949 µM, first compound 10 µM
[19] = second compound 0.03 µM, first compound 0.0316 µM
[20] = second compound 0.03 µM, first compound 0.1 µM
[21] = second compound 0.03 µM, first compound 0.316 µM
[22] = second compound 0.03 µM, first compound 1 µM
[23] = second compound 0.03 µM, first compound 3.16 µM
[24] = second compound 0.03 µM, first compound 10 µM
[25] = second compound 0.0949 µM, first compound 0.0316 µM
[26] = second compound 0.0949 µM, first compound 0.1 µM
[27] = second compound 0.0949 µM, first compound 0.316 µM
[28] = second compound 0.0949 µM, first compound 1 µM
[29] = second compound 0.0949 µM, first compound 3.16 µM
[30] = second compound 0.0949 µM, first compound 10 µM
[31] = second compound 0.3 µM, first compound 0.0316 µM
[32] = second compound 0.3 µM, first compound 0.1 µM
[33] = second compound 0.3 µM, first compound 0.316 µM
[34] = second compound 0.3 µM, first compound 1 µM
[35] = second compound 0.3 µM, first compound 3.16 µM
[36] = second compound 0.3 µM, first compound 10 µM
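Note: spheroids exposed to compound for seven days before viability readout.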

Cc1nc(N2CCC3(CC2)COC(C)C3N)c(CO)nc1Sc1ccnc(N)c1Cl (stereo unspecified) + CCn1c(-c2cc(N3CCN(C)CC3)cnc2C(C)OC)c2c3cc(ccc31)-c1csc(n1)CC(NC(=O)C1CC1C)C(=O)N1CCCC(N1)C(=O)OCC(C)(C)C2
inactive: viability, T/C [1] 90.4% | viability, T/C [2] 99.3% | viability, T/C [3] 88.4% | viability, T/C [4] 102% | viability, T/C [5] 97.2% | viability, T/C [6] 95.7% | viability, T/C [7] 114% | viability, T/C [8] 103% | viability, T/C [9] 104% | viability, T/C [10] 103% | viability, T/C [11] 100% | viability, T/C [12] 95.8% | viability, T/C [13] 111% | viability, T/C [14] 89.2% | viability, T/C [15] 97.1% | viability, T/C [16] 112% | viability, T/C [17] 114% | viability, T/C [18] 115% | viability, T/C [19] 96% | viability, T/C [20] 106% | viability, T/C [21] 105% | viability, T/C [22] 99.1% | viability, T/C [23] 106% | viability, T/C [24] 90.6% | viability, T/C [25] 104% | viability, T/C [26] 114% | viability, T/C [27] 79% | viability, T/C [28] 92% | viability, T/C [29] 102% | viability, T/C [30] 104% | viability, T/C [31] 109% | viability, T/C [32] 106% | viability, T/C [33] 100% | viability, T/C [34] 107% | viability, T/C [35] 115% | viability, T/C [36] 115%
> 10 µM: IC50 (second compound 0.000949 µM) | IC50 (second compound 0.003 µM) | IC50 (second compound 0.00949 µM) | IC50 (second compound 0.03 µM) | IC50 (second compound 0.0949 µM) | IC50 (second compound 0.3 µM)

NC1c2ccccc2OC12CCN(c1cnc3c(N4CCCc5ncccc54)n[nH]c3n1)CC2 (stereo unspecified) + CCn1c(-c2cc(N3CCN(C)CC3)cnc2C(C)OC)c2c3cc(ccc31)-c1csc(n1)CC(NC(=O)C1CC1C)C(=O)N1CCCC(N1)C(=O)OCC(C)(C)C2
> 10 µM: IC50 (second compound 0.000949 µM) | IC50 (second compound 0.003 µM) | IC50 (second compound 0.00949 µM) | IC50 (second compound 0.03 µM) | IC50 (second compound 0.0949 µM) | IC50 (second compound 0.3 µM)
inactive: viability, T/C [1] 91.7% | viability, T/C [2] 98.8% | viability, T/C [3] 111% | viability, T/C [4] 90.2% | viability, T/C [5] 86.5% | viability, T/C [6] 76.8% | viability, T/C [7] 98.1% | viability, T/C [8] 120% | viability, T/C [9] 105% | viability, T/C [10] 102% | viability, T/C [11] 95.6% | viability, T/C [12] 76.8% | viability, T/C [13] 116% | viability, T/C [14] 102% | viability, T/C [15] 97.1% | viability, T/C [16] 98% | viability, T/C [17] 90.7% | viability, T/C [18] 73.9% | viability, T/C [19] 113% | viability, T/C [20] 102% | viability, T/C [21] 111% | viability, T/C [22] 107% | viability, T/C [23] 102% | viability, T/C [24] 72.3% | viability, T/C [25] 114% | viability, T/C [26] 88% | viability, T/C [27] 110% | viability, T/C [28] 107% | viability, T/C [29] 116% | viability, T/C [30] 78.5% | viability, T/C [31] 103% | viability, T/C [32] 105% | viability, T/C [33] 113% | viability, T/C [34] 93.9% | viability, T/C [35] 104% | viability, T/C [36] 64.8%

Nc1ccn(C2OC(CO)C(O)C2(F)F)c(=O)n1 (stereo unspecified) + CCn1c(-c2cc(N3CCN(C)CC3)cnc2C(C)OC)c2c3cc(ccc31)-c1csc(n1)CC(NC(=O)C1CC1C)C(=O)N1CCCC(N1)C(=O)OCC(C)(C)C2
< 0.00316 µM: IC50 (second compound 0.000949 µM) | IC50 (second compound 0.003 µM) | IC50 (second compound 0.00949 µM) | IC50 (second compound 0.03 µM) | IC50 (second compound 0.0949 µM) | IC50 (second compound 0.3 µM)
inactive: viability, T/C (second compound 0.000949 µM, first compound 0.00316 µM) 33.4% | viability, T/C (second compound 0.003 µM, first compound 0.00316 µM) 21.9% | viability, T/C (second compound 0.00949 µM, first compound 0.00316 µM) 24.4% | viability, T/C (second compound 0.03 µM, first compound 0.00316 µM) 29% | viability, T/C (second compound 0.0949 µM, first compound 0.00316 µM) 43.2% | viability, T/C (second compound 0.0949 µM, first compound 0.01 µM) 10.6% | viability, T/C (second compound 0.3 µM, first compound 0.00316 µM) 46.8% | viability, T/C (second compound 0.3 µM, first compound 0.01 µM) 16.9%
active: viability, T/C (second compound 0.000949 µM, first compound 0.01 µM) 6.66% | viability, T/C [1] 5.75% | viability, T/C [2] 4.77% | viability, T/C [3] 5.22% | viability, T/C [4] 4.87% | viability, T/C (second compound 0.003 µM, first compound 0.01 µM) 6.3% | viability, T/C [7] 5.15% | viability, T/C [8] 4.81% | viability, T/C [9] 4.73% | viability, T/C [10] 4.09% | viability, T/C (second compound 0.00949 µM, first compound 0.01 µM) 6.44% | viability, T/C [13] 5.46% | viability, T/C [14] 4.39% | viability, T/C [15] 5.27% | viability, T/C [16] 4.67% | viability, T/C (second compound 0.03 µM, first compound 0.01 µM) 9.12% | viability, T/C [19] 4.98% | viability, T/C [20] 5.4% | viability, T/C [21] 5.08% | viability, T/C [22] 5.39% | viability, T/C [25] 4.96% | viability, T/C [26] 5.29% | viability, T/C [27] 5.26% | viability, T/C [28] 4.88% | viability, T/C [31] 6.97% | viability, T/C [32] 5.92% | viability, T/C [33] 5.96% | viability, T/C [34] 5.73%
